# Source: ChEMBL document CHEMBL3271985, “Partition coefficients and surface areas of some alkylbenzenes” (J Med Chem, 1976)
# Experiment: Octanol-water partition coefficient, log P of the compound
row,SMILES,logP
1,c1ccc2c(c1)CCCC2,3.52
2,c1ccc(C2CCCC2)cc1,4.27
3,c1ccc(C2CCCCC2)cc1,4.64
4,c1ccc(C23CC4CC(CC(C4)C2)C3)cc1,5.43
5,c1cc2ccc1CCc1ccc(cc1)CC2,2.33
6,c1ccc2c(c1)CCC2,3.33
7,CC(C)c1ccccc1 [ISOPROPYLBENZENE],3.66
8,Cc1cccc(C)c1 [M-XYLENE],3.2
9,Cc1ccccc1C [O-XYLENE],3.12
10,Cc1ccc(C)cc1 [P-XYLENE],3.15
11,CC(C)(C)c1ccccc1 [tert-Butylbenzene],4.11
